According to patent publication US20230302164A1, “PSMA-Targeting Ligands With Optimal Properties for Imaging and Therapy” (Wisconsin Alumni Research Foundation, priority 2021, published 2023):
Where two headings read alike, the source gives them in different places. Values belong to the compound of their own block, whether it stands above or below them.

How the values were obtained:
[1] = Partition (logP) and distribution (logD) coefficients, hydrophobicity comparison; assay type: physicochemical; conditions: for LogD: distribution coefficient; for LogD / LogP: 177Lu-labeled compound; for LogP: partition coefficient
[2] = PET/CT imaging in normal ICR mice, blood kinetics by region of interest analysis of the heart; assay type: in vivo; conditions: i.v., PET days 0-2
Description: Compounds PSMA-C12 and PSMA-PhC18 were dissolved in water at a concentration of 1-2 mg/mL. Radiolabeling with Y-86 was carried out in NaOAc buffer (pH 5.0) at 90-95 C for 30 min to 1 h at constant stirring. Ten micrograms of compound per mCi of ^86Y were employed, affording quantitative radiochemical yields. Purification of the compounds was carried out using reverse-phase solid-phase chromatography and purified compounds were redissolved in physiological injection media (e.g., normal saline). Quality control was conducted using reverse-phase HPLC.
In PET/CT imaging studies, 100-250 µCi of ^86Y-PSMA-C12 and ^86Y-PSMA-PhC18 were intravenously administered into normal ICR mice, and mice were scanned on days 0, 1, and 2 after injection. The results are shown in FIG. 1 (for ^86Y-PSMA-C12) and in FIG. 2 (for ^86Y-PSMA-PhC18). Blood circulation kinetics were analyzed through a region of interest analysis of the heart.
To our knowledge, ^86Y-PSMA-PhC18 is the only PSMA inhibitor showing long circulation without albumin binding, and that has predominantly hepatic excretion. These features have clear advantages over other previously known PSMA ligands for prostate cancer theranostics.

[3] = tested on: PC3-PIP tumor xenografts; assay: Ex vivo biodistribution in PC3-PIP mice after last imaging timepoint; conditions: 24 h p.i. (617, C12) or 72 h p.i. (PhC18)
Description: Next, an ex vivo biodistribution analysis was performed following the last imaging timepoint at 24 h p.i. for PC3-PIP mice injected intravenously with ^86Y-PSMA-617 and ^86Y-PSMA-C12 and at 72 h p.i. in mice administered ^86Y-PSMA-PhC18.

[4] = target: T1, PSMA (LNCap cells, PSMA positive) (Homo sapiens, UniProt Q04609); assay: Competitive binding assay in LNCap cells using 86Y as a radioligand; conditions: 86Y radioligand, read-out: half inhibition concentration (IC50)
T1 construct: endogenous in cells; host or cells: LNCap cells (human prostate adenocarcinoma)
T1 sequence (Q04609 whole entry): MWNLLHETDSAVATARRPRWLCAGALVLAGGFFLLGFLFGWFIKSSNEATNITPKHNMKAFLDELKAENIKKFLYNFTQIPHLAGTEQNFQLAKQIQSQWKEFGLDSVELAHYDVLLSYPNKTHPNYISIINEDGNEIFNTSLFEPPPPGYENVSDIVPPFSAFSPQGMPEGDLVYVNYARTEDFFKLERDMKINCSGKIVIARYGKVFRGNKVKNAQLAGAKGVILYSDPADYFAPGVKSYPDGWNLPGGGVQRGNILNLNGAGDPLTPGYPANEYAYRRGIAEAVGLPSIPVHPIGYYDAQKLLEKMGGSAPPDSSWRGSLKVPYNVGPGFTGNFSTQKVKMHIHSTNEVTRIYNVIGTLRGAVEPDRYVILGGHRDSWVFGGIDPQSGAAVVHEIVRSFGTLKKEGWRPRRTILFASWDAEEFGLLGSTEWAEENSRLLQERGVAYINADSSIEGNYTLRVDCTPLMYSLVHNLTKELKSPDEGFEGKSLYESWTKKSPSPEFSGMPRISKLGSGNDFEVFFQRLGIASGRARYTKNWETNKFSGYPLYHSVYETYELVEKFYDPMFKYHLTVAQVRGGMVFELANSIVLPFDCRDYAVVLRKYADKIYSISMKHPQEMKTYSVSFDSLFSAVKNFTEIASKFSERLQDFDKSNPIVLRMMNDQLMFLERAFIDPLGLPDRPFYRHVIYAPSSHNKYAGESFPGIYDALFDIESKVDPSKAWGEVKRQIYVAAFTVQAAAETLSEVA
Description: Competitive binding assays were performed in LNCap cells (PSMA positive, androgen-sensitive human prostate adenocarcinoma cells) using ^86Y as a radioligand.

[5] = tested on: LNCap tumor xenografts with lower PSMA expression; assay: PET/CT imaging and region of interest analysis in nude mice bearing LNCap tumor xenografts; assay type: in vivo
Description: Next, PET/CT imaging studies were performed in nude mice bearing LNCap tumor xenografts with lower PSMA expression. The mice were injected intravenously with ^86Y-PSMA-617, ^86Y-PSMA-C12, or ^86Y-PSMA-PhC18 and scanned up to 72 h p.i. […] Finally, a region of interest analysis was then performed on the PET/CT images in nude mice bearing LNCap tumor xenografts injected intravenously with ^86Y-PSMA-617, ^86Y-PSMA-C12, or ^86Y-PSMA-PhC18 and scanned up to 72 h post injection.

[6] = tested on: PC3-PIP tumor xenografts; assay: PET/CT imaging and region of interest analysis in nude mice bearing PC3-PIP tumor xenografts; assay type: in vivo
Description: Next, PET/CT imaging studies were performed in nude mice bearing PC3-PIP tumor xenografts ([…] tumors) injected intravenously with ^86Y-PSMA-617, ^86Y-PSMA-C12, or ^86Y-PSMA-PhC18 and scanned up to 72 h post injection.
A region of interest analysis was then performed on the PC3-PIP tumor xenografts injected intravenously with ^86Y-PSMA-617, ^86Y-PSMA-C12, or ^86Y-PSMA-PhC18 and scanned up to 72 h post injection.

[7] = nude mice, i.v., scanned up to 72 h
[8] = nude mice, region of interest analysis

SMILES: O=C([O-])CN1CCN(CC(=O)[O-])CCN(CC(=O)NCC2CCC(C(=O)N[C@@H](Cc3ccc4ccccc4c3)C(=O)NCCCC[C@H](NC(=O)N[C@@H](CCC(=O)O)C(=O)O)C(=O)O)CC2)CCN(CC(=O)[O-])CC1.[177Lu+3] (stereo partly drawn) [^177Lu-PSMA-617, reference compound]
LogD [1]: -3.2
LogP [1]: -2.8

SMILES: O=C(O)CCC(NC(=O)NC(CCCCNC(=O)CCCCCCCCCCCNC(=O)CN1CCN(CC(=O)O)CCN(CC(=O)O)CCN(CC(=O)O)CC1)C(=O)O)C(=O)O (stereo not drawn) [^86Y-PSMA-C12, metal not drawn]
blood circulation [2]: short circulation half-life
excretion route [2]: renal excretion
tissue with highest uptake in ex vivo biodistribution [3]: the tumor shows the highest uptake of all analysed tissues
IC50 [4]: 58.2 nM

More lines, main results first:

hydrophobicity comparison ([1]; 177Lu-labeled compounds compared with each other): two orders of magnitude more hydrophobic
LogD [1]: -1.2
LogP [1]: -0.8
SMILES: O=C(O)CCC(NC(=O)NC(CCCCNC(=O)CCCCCCCCCCCCCCCCCc1ccc(NC(=O)CN2CCN(CC(=O)O)CCN(CC(=O)O)CCN(CC(=O)O)CC2)cc1)C(=O)O)C(=O)O (stereo not drawn) [^177Lu-PSMA-PhC18, metal not drawn]

clearance from normal organs ([5]; nude mice): Steady clearance from normal organs
tumor uptake and retention versus 86Y-PSMA-617 ([5]; nude mice, PET/CT): significantly improved
blood circulation [5, 7]: prolonged blood circulation
renal clearance [5, 7]: minimal renal clearance
blood circulation half-life [5, 8]: 15.1 h
time at which tumor uptake plateaued ([5]; p.i.): 24 h
tumor uptake at 72 h p.i. relative to 86Y-PSMA-617 and 86Y-PSMA-C12 at 24 h p.i. ([5]; region of interest analysis): five times higher
blood circulation [2]: prolonged circulation
excretion route [2]: hepatobiliary excretion
tumor uptake and retention versus 86Y-PSMA-617 and 86Y-PSMA-C12 ([6]; nude mice, i.v., PET/CT): significantly improved
blood circulation [6, 7]: prolonged blood circulation
renal clearance [6, 7]: minimal renal clearance
blood circulation half-life [6, 8]: 11.7 h
blood circulation half-life (unit not given) ([6]; nude mice, region of interest analysis, FIG. 5 legend): 11.7 h
time at which tumor uptake plateaus ([6]; post injection): 24 h
SMILES: O=C(O)CCC(NC(=O)NC(CCCCNC(=O)CCCCCCCCCCCCCCCCCc1ccc(NC(=O)CN2CCN(CC(=O)O)CCN(CC(=O)O)CCN(CC(=O)O)CC2)cc1)C(=O)O)C(=O)O (stereo not drawn) [^86Y-PSMA-PhC18, metal not drawn]
tissue with highest uptake in ex vivo biodistribution [3]: the tumor shows the highest uptake of all analysed tissues

LogD ([1]; read-out: LogD): -2.9
LogP ([1]; read-out: LogP): -2.6
SMILES: O=C(O)CCC(NC(=O)NC(CCCCNC(=O)CCCCCCCCCCCNC(=O)CN1CCN(CC(=O)O)CCN(CC(=O)O)CCN(CC(=O)O)CC1)C(=O)O)C(=O)O (stereo not drawn) [^177Lu-PSMA-C12, metal not drawn]
